# According to US20220387466A1, “COMPOUNDS AND PHARMACEUTICAL COMPOSITIONS FOR PREVENTION AND/OR TREATMENT OF DYSBIOSIS AND ANTIBACTERIAL ANTIDOTES FOR MICROBIOME-PROTECTION” (priority 2019, published 2022):
# Structures can show the parent of a compound that is named as a salt.
# Key:
# B. uniformis [1] = experiment: Prestwick library screen for microbiome-protective antibiotic antagonists (growth AUC z-scores); type: cell-based, Bacteroides uniformis; settings: z-score of normalized growth AUC, two replicates
# Excerpt: The inventors reasoned that it should be possible to identify drugs that selectively antagonize the effect of antibiotics on gut microbes, while retaining activity against pathogens. Therefore, the inventors screened the Prestwick library to identify antagonizing compounds to erythromycin or doxycycline on two abundant and prevalent gut microbes, B. vulgatus and B. uniformis.
# Preparation of screening plates. The Prestwick Chemical Library was purchased from Prestwick Chemical Inc. and drugs were re-arrayed, diluted and stored in 96 well format as described before. The inventors prepared drug plates (2×drug concentration) in MGAM medium and stored them at −30° C. For each experiment, drug plates were thawed, supplemented with the respective antibiotic solution (freshly prepared in MGAM) and pre-reduced in the anaerobic chamber overnight. All rearranging and aliquoting steps were done using the Biomek FXP (Beckman Coulter) system.
# Inoculation and screening conditions. Strains were grown twice overnight, the second overnight culture was diluted in MGAM to reach OD578 nm 0.04 (4×the desired starting OD). 25 μl of the diluted cultures were used to inoculate wells containing 50 μl of 2× concentrated Prestwick drug and 25 μl of the 4× concentrated antibiotic using the semi-automated, 96-well multi-channel pipette epMotion 96 (Eppendorf). Each well contained 1% DMSO, 20 μM of the Prestwick drug and a species-specific antibiotic concentration that was just inhibitory for the respective strain (0.625 μM for erythromycin, 0.04 μM doxycycline for B. uniformis and 0.08 μM doxycycline for B. vulgatus). Plates were sealed with breathable membranes (Breathe-Easy®) and OD578 was measured hourly after 30 sec of linear shaking with a microplate spectrophotometer (EON, Biotek) and an automated microplate stacker (Biostack 4, Biotek) fitted inside a custom-made incubator (EMBL Mechanical Workshop). Growth curves were collected up to 24 h. For each antibiotic, each species was screen in biological duplicates. All experiments included control wells of unperturbed growth (32 wells per run) and control wells for growth in the presence of the antibiotic only (8 wells per plate).
# Analysis pipeline and hit calling: All growth curves within a plate were truncated at the transition time from exponential to stationary phase and converted to normalized AUCs using in-run control wells (no drug) as described before. The inventors then calculated z-scores based on these normalized AUCs, removed replicates with 8-fold differences in z-scores to eliminate noise effects, computed mean z scores across the two replicates and selected combinations with mean z-scores >3. This selection included 19 potential antibiotic antagonists and the inventors followed up on 14 of them (7 potential erythromycin and 7 potential doxycycline antagonists in either B. vulgatus or B. uniformis—see FIG. 4) in independent experiments.
# B. vulgatus [2] = experiment: as above; type: cell-based, Bacteroides vulgatus; settings: Doxycycline 0.08 μM + 20 μM drug, z-score of normalized growth AUC, two replicates
# B. uniformis [3] = experiment: Validation of microbiome-protective antagonists (concentration-dependent growth rescue); type: cell-based, Bacteroides uniformis; settings: antagonist gradient, normalized AUC >0.25 = growth rescue
# Method: (§1) Validation of microbiome-protective antagonists: In a first step, the inventors kept the erythromycin/doxycycline concentration constant (0.625 μM for erythromycin, 0.078 μM (B. vulgates)/0.039 μM (B. uniformis) for doxycycline) and tested concentration gradients of the potential antagonists with ranges depending on the antagonist's solubility. Compounds were purchased from independent vendors and dissolved at 100× starting concentration in DMSO. Eight 2-fold serial dilutions were prepared in 96-well plates with each row containing a different antagonist, sufficient control DMSO wells and wells with just the respective antibiotic (‘antibiotic-only’ control). These master plates were diluted in MGAM medium (50 μl) to 2×assay concentration and 25 μl freshly prepared antibiotic solution (4× test concentration) was added. Plates were pre-reduced overnight in an anaerobic chamber and inoculated with 25 μl of overnight cultures (prepared as described under “Growth conditions”) to reach a starting OD578 of 0.01 and 1% DMSO concentration. Growth was monitored hourly for 24 h after 30 sec of linear shaking. Experiments were performed in biological triplicates. For analysis, growth curves were converted into normalized AUCs (see above). The inventors accounted for residual growth in the presence of the antibiotic by subtracting the median normalized AUCs of the ‘antibiotic-only’ control per plate.
# B. vulgatus [4] = experiment: 8x8 checkerboard assay for anaerobic commensals (antibiotic vs antagonist); type: cell-based, Bacteroides vulgatus
# Excerpt: Checkerboard assays for anaerobic commensals: Validated antagonists were further investigated in 8×8 checkerboard assays, where both antibiotics and antagonists were titrated against each other. Such assays were first performed for the commensals that were originally screened (i. e. B. vulgatus and B. uniformis—4 replicates) and later expanded towards 6 further gut microbes (B. caccae, B. fragilis NT, B. ovatus, B. thetaiotaomicron, P. copri, P. distasonis—2 replicates). For vertical gradients, 2-fold serial dilutions of the antagonists were prepared first in 100× in DMSO and diluted in MGAM as described above (section ‘Validation of microbiome-protective antagonists’). Horizontal antibiotic dilution series were freshly prepared in MGAM at 4× final concentration in equidistant concentration steps. Both, vertical and horizontal dilution series were combined (50 μl of the antagonist gradients (2×) and 25 μl of the antibiotic gradients (4×)) in 96 well plates. Plates were pre-reduced under anaerobic conditions overnight, inoculated with 25 μl of diluted overnight culture (at 4× starting OD) and sealed with breathable membrane (Breathe-Easy®). Bacterial growth was monitored once per hour for 24 hours after 30 sec linear shaking (Eon+Biostack 4, Biotek) under anaerobic conditions. Growth curves were converted into normalized AUCs as described using in-plate controls to define unperturbed growth.
# E. faecalis [5] = experiment: Antidote with macrolide on enterococci (Example 6); type: cell-based, Enterococcus faecalis
# Excerpt: Heat maps show median area under the growth curve (AUC) of three biologically independent replicates. […] All drug concentrations are in μM.
# Here, the inventors expanded testing towards additional antidotes, and included the intestinal human pathogen Enterococcus faecalis.
# [6] = tested on: species of the order Bacteroidales; experiment: Antidote vs azithromycin across seven gut Bacteroidales (Example 4); type: cell-based; settings: combination with azithromycin
# Method: The antidotes dicumarol (first column), benzbromarone (second column) and tolfenamic acid (third column) were tested for their efficacy in antagonizing the macrolide antibiotic azithromycin across seven prevalent and abundant gut Bacteroidales (B. vulgatus, B. fragilis NT, B. thetaiotaomicron, P. copri, B. caccae, B. ovatus, P. distasonis). […] All drug concentrations are in μM.
# In particular, they aimed at testing, whether these antidotes can also protect from other macrolides such as azithromycin, a clinically more relevant antibiotic.
# [7] = tested on: synthetic gut commensal community of seven human gut commensals; experiment: Synthetic gut commensal community growth with macrolide and antidote (Example 5); type: cell-based; settings: erythromycin and azithromycin
# Excerpt: Heat maps depict area under the growth curve (AUC) of a synthetic community consisting of seven human gut commensals. Shown is the median AUC of three individual replicates. All drug concentrations are in μM.
# So far, antidote effects have only been analyzed in single or pure cultures. However, the human gut microbiome is a complex community of many different bacterial taxa that is usually not adequately mimicked in monocultures.
# E. faecalis [8] = experiment: E. faecalis-containing synthetic community, E. faecalis CFU on selective medium (Example 7); type: cell-based, Enterococcus faecalis
# Excerpt: (§2) Heat maps show median area under the growth curve (AUC) of the seven-member synthetic community including the pathogen E. faecalis. The numbers within the heat map represent the total number of all E. faecalis viable cells for each erythromycin-antidote combination as determined by enumerating of E. faecalis colony forming units after plating on selective medium. All drug concentrations are in μM. n. d.=not detectable.
# (§3) The inventors exposed synthetic communities that contained the intestinal gut pathogen E. faecalis to erythromycin, and evaluated rescue of gut commensals and simultaneous killing of the pathogen in the presence of antidotes.
# E. faecium = experiment: Antidote with macrolide on enterococci (Example 6); type: cell-based
# [9] = tested on: seven-member synthetic community including the pathogen E. faecalis; experiment: E. faecalis-containing synthetic community, community growth AUC (Example 7); type: cell-based
# Excerpt: as §2, §3
# B. vulgatus [10] = experiment: Validation of microbiome-protective antagonists (concentration-dependent growth rescue); type: cell-based, Bacteroides vulgatus; settings: Doxycycline 0.078 μM constant, antagonist gradient, normalized AUC >0.25 = growth rescue
# Method: as §1
# [11] = Doxycycline 0.04 μM + 20 μM drug
# [12] = Erythromycin 0.625 μM + 20 μM drug
# [13] = erythromycin 1.15 μM + 40 μM dicumarol or 20 μM benzbromarone
structure (smiles),measurement,setting,value
Cc1ccc(-c2cc(C(F)(F)F)nn2-c2ccc(S(N)(=O)=O)cc2)cc1 [Celecoxib],Mean z-score,B. uniformis [1]; [11],3.275
N#CC(c1ccc(Cl)cc1)c1c(Cl)cc(-n2ncc(=O)[nH]c2=O)cc1Cl (stereo not shown) [Diclazuril],Mean z-score,B. vulgatus [2],3.117
Cc1ccc(Cl)c(Nc2ccccc2C(=O)O)c1Cl [Meclofenamic acid sodium salt monohydrate],Mean z-score,B. vulgatus [2],3.010
CCCCc1nc(Cl)c(CO)n1Cc1ccc(-c2ccccc2-c2nn[nH]n2)cc1 [Losartan],Mean z-score,B. uniformis [1]; [11],3.421
same,Validation,B. uniformis [3]; Doxycycline 0.039 μM constant,FALSE
CC(C)c1c(CN(C)C(C)Cc2ccccc2)n(C)n(-c2ccccc2)c1=O (stereo not shown) [Famprofazone],Mean z-score,B. uniformis [1]; [12],7.832
same,Validation,B. uniformis [3]; Erythromycin 0.625 μM constant,FALSE
CCc1oc2ccccc2c1C(=O)c1cc(Br)c(O)c(Br)c1 [Benzbromarone],Mean z-score,B. uniformis [1]; [12],6.034
same,rescue of B. vulgatus growth from erythromycin,B. vulgatus [4]; combination with erythromycin,can rescue the growth
same,interaction with antibacterial effects of erythromycin/azithromycin,E. faecalis [5],synergized
same,rescue from erythromycin or azithromycin treatment,E. faecalis [5],Neither dicumarol nor benzbromarone or tolfenamic acid could rescue
same,protection of Bacteroidales species from azithromycin,[6],can be Protected
same,protection (growth rescue) of synthetic gut commensal community from macrolide antibiotics,[7],can be Protected
same,E. faecalis counts,E. faecalis [8]; [13],drop/are still found at below the detection limit
same,E. faecalis cells in community under erythromycin + antidote,E. faecalis [8]; erythromycin + antidote,efficiently inhibited
same,Validation,B. uniformis [3]; Erythromycin 0.625 μM constant,FALSE
same,interaction with antibacterial effects of erythromycin/azithromycin,E. faecium,synergized
same,rescue from erythromycin or azithromycin treatment,E. faecium,Neither dicumarol nor benzbromarone or tolfenamic acid could rescue
same,community growth (AUC),[9]; [13],the community is rescued
same,rescue of the community despite erythromycin treatment,[9]; erythromycin + antidote,rescue of the community
Oc1cc(Cl)ccc1Oc1ccc(Cl)cc1Cl [Triclosan],Mean z-score,B. uniformis [1]; [11],3.066
same,Validation,B. uniformis [3]; Doxycycline 0.039 μM constant,FALSE
O=C(O)c1cc(-c2ccc(F)cc2F)ccc1O [Diflunisal],rescue of B. vulgatus growth from doxycycline,B. vulgatus [4]; combination with doxycycline,rescued
same,Validation,B. vulgatus [10],TRUE
same,Mean z-score,B. vulgatus [2],3.265
"O=C(O)Cc1cc(I)c(Oc2ccc(O)c(I)c2)c(I)c1 [3,3′,5-triiodothyroacetic acid]",Mean z-score,B. uniformis [1]; [11],4.333
same,Validation,B. uniformis [3]; Doxycycline 0.039 μM constant,TRUE
CC/C(=C(/CC)c1ccc(O)cc1)c1ccc(O)cc1 [Diethylstilbestrol],Mean z-score,B. uniformis [1]; [12],9.258
same,Validation,B. uniformis [3]; Erythromycin 0.625 μM constant,TRUE
same,Mean z-score,B. vulgatus [2],3.296
CCC(Cc1c(I)cc(I)c(N)c1I)C(=O)O (stereo not shown) [Iopanoic acid],Validation,B. vulgatus [10],TRUE
same,Mean z-score,B. vulgatus [2],5.698
CCCCCN(CCCCC)C(=O)C(CCC(=O)O)NC(=O)c1ccc(Cl)c(Cl)c1 (stereo not shown) [Lorglumide sodium salt],Mean z-score,B. uniformis [1]; [12],6.106
same,Validation,B. uniformis [3]; Erythromycin 0.625 μM constant,TRUE
CC[C@H](c1ccc(O)cc1)[C@@H](CC)c1ccc(O)cc1 [Hexestrol],Mean z-score,B. uniformis [1]; [12],9.630
same,Validation,B. uniformis [3]; Erythromycin 0.625 μM constant,TRUE
O=C1Nc2ccc(Cl)cc2[C@@](C#CC2CC2)(C(F)(F)F)O1 [Efavirenz],Mean z-score,B. vulgatus [2],3.138
